Measurements from patent US20240058334A1, “METHODS FOR TREATING SMALL CELL LUNG CANCER AND OTHER NEUROENDOCRINE CANCERS” (AstraZeneca AB, priority 2021, published 2024).

System: SCLC cell lines
Test: 96 hr proliferation assay in SCLC cell lines
Type: cell-based
Conditions: for response to single agent ATR inhibitor: the three cell lines with greater than additive response to the combination, SLFN11 low group

Structure (SMILES) | response to single agent ATR inhibitor | lurbinectedin IC50 values (cells with low expression of SLFN11 (FIG. 1))
CNCc1ccc(-c2cc(-c3nc(-c4ccc(S(=O)(=O)C(C)C)cc4)cnc3N)on2)cc1 [berzosertib] | relatively resistant | –
C[C@@H]1COCCN1c1cc(C2([S@](C)(=N)=O)CC2)nc(-c2cc[nH]c3nccc2-3)n1 [ceralasertib] | relatively resistant | –
COc1ccc2[nH]c3c(c2c1)CCN[C@]31CS[C@@H]2c3c(OC(C)=O)c(C)c4c(c3[C@H](COC1=O)N1[C@@H]2[C@H]2c3c(cc(C)c(OC)c3O)C[C@@H]([C@@H]1O)N2C)OCO4 [lurbinectedin] | – | higher
